# Experimental data: patent US8586103B2, “Non-polymeric compositions for controlled drug delivery” (Foresee Pharmaceuticals, LLC, priority 2008, dated 2013)
# Structures can show the parent of a compound that is named as a salt.
# Key:
# Format in all cases: physicochemical
# [1] = In vitro release of doxorubicin from SAIB/NMP formulations; conditions: for Release (%) of DOX: 24 h, PBS 7.4, 37° C., 6% DOX loading
# Procedure: Formulations were prepared using doxorubicin-HCl (DOX-HCl) and doxorubicin docusate (DOX-DSS) complex powders. Formulations were prepared by mixing DOX-HCL and DOX-DSS with SAIB solution in NMP to achieve 6% DOX loading as shown in Table 6.
# (§1) An aliquot of the suspension was used for studying the in vitro release of DOX from different formulations. About 0.1 mL of each DOX formulation was injected into 3 mL of releasing buffer (PBS 7.4, containing 0.1% sodium azide) in a 4 mL glass vial. The vials were incubated at 37° C. and sampled at various time points. At each time point, 2 mL of release medium was removed and replaced with 2 mL of fresh release medium. The collected samples were analyzed for peptide concentration and integrity by HPLC using an YMC-Pack ODS-120A column. Triplicate samples were used for each formulation.
# [2] = In vitro release of leuprolide from SAIB/NMP formulations; conditions: after two weeks; PBS 7.4, 37° C.; SAIB/NMP formulation, about 6% leuprolide
# Procedure: (§2) In another embodiment, the release rate of the compositions of the present invention was determined in vitro. About 0.1 mL of each formulation was injected into 3 mL of releasing buffer (PBS 7.4, containing 0.1% sodium azide) in a 4 mL glass vial. The vials were incubated at 37° C. and sampled at various time points. At each time point, 2 mL of release medium was removed and replaced with 2 mL of fresh release medium. The collected samples were analyzed for bioactive substance concentration and integrity by HPLC using an YMC-Pack ODS-120A column or equivalent. Triplicate samples were used for each formulation.
# Formulations were prepared by mixing leuprolide acetate (LA-Ac), leuprolide dodecyl sulfate (LA-SDS), leuprolide docusate (LA-DSS) and leuprolide oleate (LA-OL) complex powders with SAIB solution in NMP (90% w/w).
# as §1, with “for” for “for studying”, “release.” for “release of DOX from different formulations.”, “leuprolide” for “DOX”
# [3] = In vitro release of pramipexole from SAIB formulations; conditions: PBS buffer, 37° C., about 6% PPL in 90% SAIB in NMP
# Procedure: Formulations containing about 6% PPL of different salt forms were prepared by mixing PPL with 90% SAIB solutions in NMP. Injections of roughly 100 mg were made into vials with 3 mL PBS buffer and 0.1% NaN3. Gel-like pellets formed and the vials were placed on a shaker at 37° C. The release of PPL was measured by removing 2 mL of the release media at specified times and replacing it with 2 mL of fresh buffer. The concentration in the release media was determined by reverse phase HPLC.
# [4] = Appearance and phase separation of octreotide formulations in SAIB/NMP; conditions: for appearance when combined with SAIB/NMP solution: octreotide about 6%
# Procedure: A solution of sucrose acetate isobutyrate (SAIB) in N-methyl-2-pyrrolidone (NMP) at a concentration of 80% by weight was prepared by combining 2 g NMP with 8 g SAIB followed by gentle mixing. A clear, low viscosity solution was obtained. Then 60 mg octreotide acetate was dissolved in 100 μL NMP which was combined with 900 μL SAIB solution in NMP (80%) and mixed well to obtain a formulation containing about 6% of octreotide acetate.
# Since both SAIB and octreotide acetate were quite soluble in NMP, a clear solution was expected after two solutions in the same solvent (NMP) were mixed. […] Therefore, such a formulation is not suitable for preparation of a stable, single-phase formulation of octreotide in SAIB/NMP solution.
# (§3) Octreotide acetate (OCT-Ac), octreotide dodecyl sulfate (OCT-SDS) and octreotide docusate (OCT-DSS) complex powders were dissolved in NMP. Then the solutions containing various salt forms of octreotide were thoroughly mixed with SAIB solution in NMP (90% w/w).
# Chunky solid precipitates were observed and an inhomogeneous formulation was obtained as observed in Example 1. This inhomogeneous formulation will block needles and is not suitable for injection. […] This formulation can be prepared immediately prior to administration or suitable for storage for a period of time by adjusting the formulation parameters. […] This formulation may be packaged and stored for a long period of time at room temperature.
# Octreotide acetate (OCT-Ac) and octreotide dodecyl sulfate (OCT-SDS) complex powders were dissolved in NMP. Then the solutions containing various salt forms of octreotide were thoroughly mixed with SAIB solution in NMP (90% w/w).
# A chunky aggregate was formed at the bottom of the formulation (FIG. 1(a)). This inhomogeneous formulation is clearly not suitable for injection to form a consistent depot system in situ for controlled release.
# [5] = Stability of the octreotide in formulations at room temperature over time (HPLC); conditions: SAIB/NMP formulation
# Text: Those peaks were not observed from the formulation at the beginning, indicating the generation of impurities or degradation products of the octreotide. The intensity of these peaks increased with the increase of time, while the peak for octreotide decreases over time. […] Therefore, this type of formulation must be modified to be suitable for controlled release delivery of various bioactive substances.
# as §3
# After two hours, about 4% of the octreotide was degraded or reacted.
# [6] = In vitro release of octreotide from SAIB/NMP formulations; conditions: PBS 7.4, 37° C., SAIB/NMP formulation, about 6% octreotide
# Procedure: as §2
# An aliquot of the suspension was used for the in vitro release. About 0.1 mL of each formulation containing octreotide was injected into 3 mL of releasing buffer (PBS 7.4, containing 0.1% sodium azide) in a 4 mL glass vial. The vials were incubated at 37° C. and sampled at various time points. At each time point, 2 mL of release medium was removed and replaced with 2 mL of fresh release medium. The collected samples were analyzed for peptide concentration and integrity by HPLC using an YMC-Pack ODS-120A column. Triplicate samples were used for each formulation.
# [7] = Phase behaviour of lysozyme SAIB/NMP pellets in PBS buffer; conditions: about 6% with 90% SAIB in NMP, shaker at 37° C.
# Procedure: Formulations containing about 6% LYZ and LYZ-DSS (85.2% LYZ) with 90% SAIB in NMP were prepared. Injections of roughly 100 mg were made into vials with 3 mL PBS buffer and 0.1% NaN3. Gel-like pellets were formed at room temperature and put on a shaker at 37° C. […] An improved depot system was achieved the complexation of lysozyme with amphiphilic molecule DSS.
# [8] = Integrity of GEN-DSS SAIB/NMP pellets in PBS buffer; conditions: about 6% and 2% GEN-DSS with 90% SAIB in NMP, incubated at 37° C.
# Procedure: Formulations containing about 6% and 2% GEN-DSS with 90% SAIB in NMP were prepared. Injections of roughly 100 mg were made into vials with 3 mL PBS buffer and 0.1% NaN3. Gel-like pellets were formed at room temperature.
compound,measurement,setting,value
"CCCCC(CC)COC(=O)CC(C(=O)OCC(CC)CCCC)S(=O)(=O)O.COc1cccc2c1C(=O)c1c(O)c3c(c(O)c1C2=O)CC(O)(C(=O)CO)CC3OC1CC(N)C(O)C(C)O1 (centres unmarked) [DOX-DSS, doxorubicin docusate]",Release (%) of DOX,[1],Less than 8%
same,reduction of the initial burst release of DOX by complexation with DSS,[1]; versus DOX-HCl formulation,~10 fold
"CCNC(=O)[C@@H]1CCCN1C(=O)[C@H](CCCNC(=N)N)NC(=O)[C@H](CC(C)C)NC(=O)[C@@H](CC(C)C)NC(=O)[C@H](Cc1ccc(O)cc1)NC(=O)[C@H](CO)NC(=O)[C@H](Cc1c[nH]c2ccccc12)NC(=O)[C@H](Cc1c[nH]cn1)NC(=O)[C@@H]1CCC(=O)N1 [LA-Ac, leuprolide acetate]",leuprolide released,[2],almost all
CCCN[C@H]1CCc2nc(N)sc2C1.Cl [PPL-HCl],pramipexole released,[3]; after one week,about 90%
same,pramipexole released,[3]; within 24 hours,More than 60%
octreotide docusate [OCT-DSS],appearance when combined with SAIB/NMP solution,"[4]; Example 7, SAIB about 70%",transparent uniform solution
"C[C@@H](O)[C@@H]1NC(=O)[C@H](CCCCN)NC(=O)[C@@H](Cc2c[nH]c3ccccc23)NC(=O)[C@H](Cc2ccccc2)NC(=O)[C@@H](NC(=O)[C@H](N)Cc2ccccc2)CSSC[C@@H](C(=O)N[C@H](CO)[C@@H](C)O)NC1=O [OCT-Ac, octreotide acetate]",appearance on mixing with SAIB solution in NMP,"[4]; Example 1, about 6% octreotide acetate, SAIB solution in NMP (80%)",opaque suspension with chunky aggregates
same,phase separation on standing,"[4]; Example 1, room temperature overnight",two distinguished phases
same,phase separation on standing,"[4]; Example 1, room temperature, within a few hours",appearance of phase separation was observed
same,appearance when combined with SAIB/NMP solution,"[4]; Example 7, SAIB about 70%",phase separation occurred immediately
same,appearance when combined with SAIB/NMP solution,"[4]; Example 8, SAIB about 80%",phase separation occurred even faster
same,octreotide degraded,[5]; after 5 days,More than half
same,octreotide degraded or reacted,[5]; after two hours,about 4%
same,octreotide released,[6]; after two weeks,more than 90%
same,octreotide released,[6]; within 24 hours,More than 60%
lysozyme [LYZ],phase behaviour of pellets,[7],phase separated after one day
leuprolide oleate [LA-OL],leuprolide released,[2],almost all
"COc1cccc2c1C(=O)c1c(O)c3c(c(O)c1C2=O)C[C@@](O)(C(=O)CO)C[C@@H]3O[C@H]1C[C@H](N)[C@H](O)[C@H](C)O1 [DOX-HCl, doxorubicin hydrochloride]",Release (%) of DOX,[1],More than 70%
Lysozyme Docusate [LYZ-DSS],phase behaviour of pellets,[7],remained one phase
octreotide dodecyl sulfate [OCT-SDS],appearance when combined with SAIB/NMP solution,"[4]; Example 7, SAIB about 70%",homogeneous suspension
same,phase separation after 24 hours,"[4]; Example 8, SAIB about 80%, room temperature, 24 h",no significant phase separation
same,appearance when combined with SAIB/NMP solution,"[4]; Example 8, SAIB about 80%",homogeneous milky suspension
Gentamycin Docusate [GEN-DSS],behaviour of gel-like pellets,[8],began to disintegrate and fall apart within a few hours
